Experimental data as given in ChEMBL document CHEMBL5725899, “Benzofurans substituted with primary benzamide as HCV inhibitors” (2018).

Assay: HCV Replicon Luciferase Assay: To evaluate compound efficacy, titrated compounds were transferred to sterile 384-well tissue culture treated plates, and the plates were seeded with HCV replicon cells (50 μL at a density of 2.4×10^3 cells/well) in DMEM containing 4% FBS (final DMSO concentration at 0.5%). After 3 days incubation at 37° C., cells were analyzed for Renilla Luciferase activity using the EnduRen substrate (Promega cat #E6485) according to the manufacturer's directions. Briefly, the EnduRen substrate was diluted in DMEM and then added to the plates to a final concentration of 7.5 μM. The plates were incubated for at least 1 h at 37° C. then read on a Viewlux Imager (PerkinElmer) using a luminescence program. The 50% effective concentration (EC50) was calculated using the four-parameter logistic formula noted above.To assess cytotoxicity of compounds, Cell Titer-Blue (Promega) was added to the EnduRen-containing plates and incubated for at least 4 hrs at 37° C. The fluorescence signal from each well was read using a Viewlux Imager. All CC50 values were calculated using the four-parameter logistic formula.
Conditions: 72 h

Structure (SMILES)	EC50 [nM]
CNC(=O)c1c(-c2ccc(F)cc2)oc2cc(N(CCF)S(C)(=O)=O)c(-c3cccc(C(=O)N[C@H](COC)C4CC4)c3)cc12	< 100
CNC(=O)c1c(-c2ccc(F)cc2)oc2cc(N(CCF)S(C)(=O)=O)c(-c3cccc(C(=O)N[C@@H](COC)C4CC4)c3)cc12	< 100
